For this assay, the system named is CbCdnB. The conditions noted are these: 10 mM Tris-HCl pH 7.4, 25 mM KCl, 20 mM MgCl2, 1 mM MnCl2, 37 °C.

SMILES strings stand for the structures. Where two headings read alike, the source gives them in different places.

Chain of CbCdnB (A0A0L9Y448 1-469): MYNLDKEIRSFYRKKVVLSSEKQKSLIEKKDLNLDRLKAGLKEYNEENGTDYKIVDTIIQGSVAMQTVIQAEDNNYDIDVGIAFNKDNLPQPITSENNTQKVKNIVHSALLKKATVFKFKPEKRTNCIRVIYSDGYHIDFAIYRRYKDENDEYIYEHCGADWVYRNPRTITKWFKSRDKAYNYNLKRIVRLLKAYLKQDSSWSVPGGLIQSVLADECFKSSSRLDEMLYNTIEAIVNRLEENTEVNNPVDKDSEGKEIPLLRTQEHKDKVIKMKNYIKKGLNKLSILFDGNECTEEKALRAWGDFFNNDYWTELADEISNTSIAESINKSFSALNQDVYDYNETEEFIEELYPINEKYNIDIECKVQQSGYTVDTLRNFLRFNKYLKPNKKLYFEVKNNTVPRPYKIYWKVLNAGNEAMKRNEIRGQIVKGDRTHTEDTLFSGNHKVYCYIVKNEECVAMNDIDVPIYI

As for `Nc1ncnc2c1ncn2[C@@H]1O[C@H](COP(=O)(O)OP(=O)(O)OP(=O)(O)O)[C@@H](O)[C@H]1O` [ATP], under “with GTP”, the “ELISA of product 2′,3′-cGAMP” value was “enzyme reaction products produced when the indicated synthase is incubated with ATP and GTP”.

With `Nc1nc2c(ncn2[C@@H]2O[C@H](COP(=O)(O)OP(=O)(O)OP(=O)(O)O)[C@@H](O)[C@H]2O)c(=O)[nH]1` [GTP], the “ELISA of product 2′,3′-cGAMP” value (with ATP) is “enzyme reaction products produced when the indicated synthase is incubated with ATP and GTP”.
